In ChEMBL document CHEMBL1201862, “PubChem BioAssay data set” (2004):
One block for each molecule: values may come before it. Active and inactive are the calls of the source.

Assays:
[1] = ADAM10 inhibitors, peptide cleavage, dose response, biochemical, QFRET (AID 743254);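 note: ADAM10 enzyme with the DM2 quenched FRET peptide as substrate; EDANS fluorescence gain as the protease cuts the substrate; inhibitor potency against ADAM10 proteolytic activity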
[2] = target: Cytochrome P450 3A4 (Homo sapiens, UniProt P08684);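 note: CYP3A4 tested as one member of a cytochrome P450 panel screen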
[3] = target: T1, Mannose-6-phosphate isomerase (Homo sapiens, UniProt P34949); test: human PMI inhibitors, high substrate, primary screen, biochemical, fluorescence intensity, high mannose 6-phosphate (AID 1220)
T1 sequence (P34949 whole entry): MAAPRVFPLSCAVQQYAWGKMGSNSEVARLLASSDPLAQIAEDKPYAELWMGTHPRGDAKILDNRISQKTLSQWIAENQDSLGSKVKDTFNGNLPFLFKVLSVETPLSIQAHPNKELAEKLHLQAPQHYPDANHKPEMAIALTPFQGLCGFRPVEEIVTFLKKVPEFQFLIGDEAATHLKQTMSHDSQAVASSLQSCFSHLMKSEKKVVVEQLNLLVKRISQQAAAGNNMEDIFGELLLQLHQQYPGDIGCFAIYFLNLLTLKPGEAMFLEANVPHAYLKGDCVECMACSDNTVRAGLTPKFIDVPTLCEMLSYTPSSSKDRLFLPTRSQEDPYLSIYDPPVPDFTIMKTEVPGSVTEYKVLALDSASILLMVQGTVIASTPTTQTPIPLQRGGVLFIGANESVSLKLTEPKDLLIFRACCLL

[4] = target: Cytochrome P450 2D6 (Homo sapiens, UniProt P10635);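 note: CYP2D6 member of a cytochrome P450 panel assay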
[5] = inhibitors of clade B AD8 Env fusion, dose response, cell-based, cherry-pick (AID 652062); format: functional;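 note: luciferase signal from cell-cell fusion driven by HIV-1 clade B AD8 Env; potency is for inhibitors of fusion seen as a drop in luminescence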
[6] = ZM109 Env clade C HIV-1 fusion inhibitors, dose response, HeLa effector, CEM target cells, luciferase, cherry-pick (AID 652058); format: functional, cell-based
[7] = inhibitors of HIV Env-driven cell fusion, dose response, cherry-pick (AID 652057); format: functional, cell-based
[8] = off-target signal loss in HeLa-CEM21 co-culture – HeLa F-luc CTL cells, cherry-picked, counter-screen for HIV-1 Env fusion inhibitor project, dose response (AID 652040); format: functional, cell-based;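 note: potency for signal decrease marking cytotoxic or nonspecific inhibition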
[9] = HepG2 cell cytotoxicity, dose response, cytotoxicity control for Shn3 inhibitor project, CellTiter-Glo, cherry-picked (AID 624134); format: functional, cell-based
[10] = system: INS1; test: beta cell apoptosis inhibitors, cytokine rescue, dose response, luminescence, retest (AID 449756); format: functional, cell-based; settings: Rattus norvegicus;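 note: cell death triggered by IL-1 beta plus TNF-alpha plus IFN-gamma mixture; protective hits raise ATP signal compared with cytokine alone wells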
[11] = target: Protein Wnt-3a (Mus musculus, UniProt P27467); test: Wnt3a-driven reporter signaling inhibition, dose response, selectivity assay for Gli-SUFU antagonist project, Wnt-LIGHT cells, luminescence (AID 651570); format: functional; settings: read-out: IC50_Mean;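 note: Wnt-LIGHT reporter cells stimulated with conditioned medium from Wnt3a-producing cells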
[12] = Shn3 3'UTR reporter inhibitors, dose response, cell-based, Clone20 osteoblasts, firefly luciferase, cherry-picked (AID 624132); format: functional;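 note: firefly luciferase luminescence from reporter carrying the Shn3 3'UTR in osteoblasts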
[13] = A549 cell cytotoxicity, dose response, cytotoxicity control, plate reader, cherry-pick, antagonist series (AID 743412); format: functional, cell-based
[14] = target: T2, Protein skinhead-1 (Caenorhabditis elegans, UniProt P34707); format: functional
T2 sequence (P34707 whole entry): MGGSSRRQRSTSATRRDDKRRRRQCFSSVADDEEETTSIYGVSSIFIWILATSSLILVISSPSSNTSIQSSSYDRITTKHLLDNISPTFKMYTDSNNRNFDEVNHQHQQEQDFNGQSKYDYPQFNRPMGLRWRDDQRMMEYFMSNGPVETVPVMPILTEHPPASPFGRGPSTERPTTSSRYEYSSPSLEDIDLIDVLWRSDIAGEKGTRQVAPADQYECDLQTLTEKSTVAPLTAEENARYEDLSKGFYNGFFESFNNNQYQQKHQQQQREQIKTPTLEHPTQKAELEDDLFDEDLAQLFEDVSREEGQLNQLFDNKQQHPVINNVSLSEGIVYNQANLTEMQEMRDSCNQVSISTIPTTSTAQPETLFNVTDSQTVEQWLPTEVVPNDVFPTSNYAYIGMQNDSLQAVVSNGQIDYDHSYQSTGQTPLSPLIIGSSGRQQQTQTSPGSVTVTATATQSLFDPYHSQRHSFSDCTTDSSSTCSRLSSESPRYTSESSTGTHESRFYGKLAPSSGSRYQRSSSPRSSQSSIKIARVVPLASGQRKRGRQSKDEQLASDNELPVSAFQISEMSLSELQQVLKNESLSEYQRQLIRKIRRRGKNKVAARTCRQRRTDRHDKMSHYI

[15] = HEK293 cell cytotoxicity, dose response, cytotoxicity control, plate reader, cherry-picked samples (AID 743446); format: functional, cell-based
[16] = LGR2 antagonists, dose response, cell-based, HEK293, CRE-luciferase reporter, cherry pick, set 2 (AID 743343); format: functional;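 note: transfected cells were stimulated with diluted bursicon conditioned medium after compound addition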
[17] = MC4R antagonists, dose response, counter-screen for LGR2 antagonist project, cell-based, plate reader, cherry pick (AID 743444); format: functional;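 note: transfected HEK 293 cells stimulated with alpha-MSH peptide; potency of inhibitors of the alpha-MSH evoked signal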
[18] = P. falciparum Dd2 growth inhibitors, dose response, SYBR Green, dry powder samples, set 9 (AID 1159568); format: functional, cell-based
[19] = intracellular Trypanosoma cruzi inhibitors in host cells – cell-based, plate reader, cherry-pick samples, set 3, dose response (AID 651818); format: functional;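 note: compounds incubated with infected cells for about four days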
[20] = target: Disintegrin and metalloproteinase domain-containing protein 17 (Homo sapiens, UniProt P78536); test: ADAM17 protease inhibitors, dose response, counter-screen for ADAM10 exosite inhibitor project, biochemical, quenched FRET substrate (AID 743253)
[21] = target: T3, Low molecular weight phosphotyrosine protein phosphatase (Homo sapiens, UniProt P24666); format: functional; settings: read-out: IC50_Mean
T3 sequence (P24666 whole entry): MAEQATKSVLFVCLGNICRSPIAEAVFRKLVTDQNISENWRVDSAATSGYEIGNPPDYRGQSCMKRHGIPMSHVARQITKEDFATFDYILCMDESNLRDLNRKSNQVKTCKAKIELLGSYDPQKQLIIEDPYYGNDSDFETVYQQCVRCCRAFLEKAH

[22] = target: Eukaryotic translation initiation factor 4E (Mus musculus, UniProt P63073); test: eIF4E–eIF4G protein interaction inhibitors, dose response, biochemical, TR-FRET (AID 855); format: functional;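 note: potency for disrupting eIF4E binding to eIF4GI seen as loss of FRET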
[23] = target: T3, Low molecular weight phosphotyrosine protein phosphatase; format: functional; settings: read-out: IC50_Mean; remark: listed apart in the source
[24] = target: T4, DNA repair and recombination protein RAD54-like (Homo sapiens, UniProt Q92698); test: inhibitors of human RAD54 branch migration, confirmation, biochemical, fluorescence, cherry-picked samples, dose series (AID 651657); format: functional
T4 sequence (Q92698 whole entry): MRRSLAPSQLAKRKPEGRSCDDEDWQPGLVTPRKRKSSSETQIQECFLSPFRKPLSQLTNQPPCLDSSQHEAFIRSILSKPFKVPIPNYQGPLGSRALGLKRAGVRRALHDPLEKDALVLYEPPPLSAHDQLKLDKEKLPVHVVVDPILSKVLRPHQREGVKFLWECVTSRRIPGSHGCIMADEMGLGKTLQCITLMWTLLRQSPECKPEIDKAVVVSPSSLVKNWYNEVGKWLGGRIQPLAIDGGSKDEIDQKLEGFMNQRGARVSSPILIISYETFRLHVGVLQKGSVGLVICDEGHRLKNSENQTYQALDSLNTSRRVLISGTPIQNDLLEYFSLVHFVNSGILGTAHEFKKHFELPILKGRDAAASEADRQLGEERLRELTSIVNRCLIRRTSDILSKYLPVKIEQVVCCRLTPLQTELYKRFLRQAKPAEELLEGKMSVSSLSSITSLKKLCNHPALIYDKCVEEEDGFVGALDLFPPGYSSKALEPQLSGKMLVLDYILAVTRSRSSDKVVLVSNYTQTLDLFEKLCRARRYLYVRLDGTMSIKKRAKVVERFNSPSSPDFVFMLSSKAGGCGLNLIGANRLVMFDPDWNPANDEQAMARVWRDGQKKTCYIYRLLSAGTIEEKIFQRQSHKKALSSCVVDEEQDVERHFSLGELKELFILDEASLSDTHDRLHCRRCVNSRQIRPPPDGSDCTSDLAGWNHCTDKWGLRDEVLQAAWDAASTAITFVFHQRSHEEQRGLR

[25] = Fluorescence-based cell-based high throughput dose response assay for inhibitors of the interaction of nucleotide-binding oligomerization domain containing 2 (NOD2) and the receptor-interacting serine-threonine kinase 2 (RIPK2).; format: functional; settings: Homo sapiens
[26] = miR-122 activators in hepatoma reporter cells, dose response, cell-based, Huh7 psiCHECK-miR122, Renilla luciferase, cherry-picked (AID 651956); format: functional;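 note: huh7 hepatoma cells stably carrying a psiCHECK-2 miR-122 sensor plasmid; renilla luciferase signal reporting endogenous miR-122 activity after 48 h compound exposure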
[27] = target: T5, Calpain-2 catalytic subunit (Sus scrofa, UniProt P43367); test: pig calpain II inhibitor potency, dose response, biochemical, fluorogenic peptide substrate (AID 1420); format: functional
T5 sequence (P43367 whole entry): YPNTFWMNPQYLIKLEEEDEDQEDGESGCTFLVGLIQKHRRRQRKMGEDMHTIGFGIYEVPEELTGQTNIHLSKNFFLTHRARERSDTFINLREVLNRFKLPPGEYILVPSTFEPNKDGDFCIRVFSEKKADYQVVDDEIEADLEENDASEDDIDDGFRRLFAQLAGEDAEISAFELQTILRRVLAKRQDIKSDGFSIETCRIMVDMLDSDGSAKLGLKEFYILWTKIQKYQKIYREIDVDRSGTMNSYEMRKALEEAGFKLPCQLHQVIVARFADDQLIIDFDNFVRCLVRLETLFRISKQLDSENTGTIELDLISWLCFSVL

Disintegrin and metalloproteinase domain-containing protein 17, sequence (P78536 whole entry, the tested form may be a part): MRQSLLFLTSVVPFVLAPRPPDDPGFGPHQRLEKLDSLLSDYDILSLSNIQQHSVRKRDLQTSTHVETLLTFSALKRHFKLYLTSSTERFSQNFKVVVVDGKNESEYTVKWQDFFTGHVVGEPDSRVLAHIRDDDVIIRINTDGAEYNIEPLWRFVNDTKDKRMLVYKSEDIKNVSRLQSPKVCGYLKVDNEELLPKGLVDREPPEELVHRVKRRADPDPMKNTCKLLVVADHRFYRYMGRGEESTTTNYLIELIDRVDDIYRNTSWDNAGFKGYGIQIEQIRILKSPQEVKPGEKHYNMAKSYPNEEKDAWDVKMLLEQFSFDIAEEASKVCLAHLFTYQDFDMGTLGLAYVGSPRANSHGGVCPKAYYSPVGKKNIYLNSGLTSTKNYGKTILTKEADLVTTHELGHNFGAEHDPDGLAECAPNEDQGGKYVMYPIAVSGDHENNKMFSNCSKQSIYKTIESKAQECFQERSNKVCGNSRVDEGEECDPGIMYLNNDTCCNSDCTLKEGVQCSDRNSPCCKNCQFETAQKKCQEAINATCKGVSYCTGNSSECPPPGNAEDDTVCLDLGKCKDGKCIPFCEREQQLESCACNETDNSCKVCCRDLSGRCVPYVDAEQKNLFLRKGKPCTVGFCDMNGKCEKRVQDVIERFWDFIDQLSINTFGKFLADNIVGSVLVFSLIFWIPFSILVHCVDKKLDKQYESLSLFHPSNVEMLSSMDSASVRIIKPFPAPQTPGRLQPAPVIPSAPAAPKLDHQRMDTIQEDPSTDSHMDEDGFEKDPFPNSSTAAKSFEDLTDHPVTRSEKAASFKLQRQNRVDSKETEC
Protein Wnt-3a, sequence (P27467 whole entry): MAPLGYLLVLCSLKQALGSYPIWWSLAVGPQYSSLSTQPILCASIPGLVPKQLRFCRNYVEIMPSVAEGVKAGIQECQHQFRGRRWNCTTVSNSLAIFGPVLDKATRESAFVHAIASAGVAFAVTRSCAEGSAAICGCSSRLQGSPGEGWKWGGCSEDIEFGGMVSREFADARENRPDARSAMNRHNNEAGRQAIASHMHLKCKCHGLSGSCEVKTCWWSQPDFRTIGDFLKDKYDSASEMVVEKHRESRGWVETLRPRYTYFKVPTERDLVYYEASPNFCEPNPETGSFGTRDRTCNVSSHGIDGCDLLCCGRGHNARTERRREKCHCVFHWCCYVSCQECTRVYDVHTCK
Cytochrome P450 2D6, sequence (P10635 whole entry, the tested form may be a part): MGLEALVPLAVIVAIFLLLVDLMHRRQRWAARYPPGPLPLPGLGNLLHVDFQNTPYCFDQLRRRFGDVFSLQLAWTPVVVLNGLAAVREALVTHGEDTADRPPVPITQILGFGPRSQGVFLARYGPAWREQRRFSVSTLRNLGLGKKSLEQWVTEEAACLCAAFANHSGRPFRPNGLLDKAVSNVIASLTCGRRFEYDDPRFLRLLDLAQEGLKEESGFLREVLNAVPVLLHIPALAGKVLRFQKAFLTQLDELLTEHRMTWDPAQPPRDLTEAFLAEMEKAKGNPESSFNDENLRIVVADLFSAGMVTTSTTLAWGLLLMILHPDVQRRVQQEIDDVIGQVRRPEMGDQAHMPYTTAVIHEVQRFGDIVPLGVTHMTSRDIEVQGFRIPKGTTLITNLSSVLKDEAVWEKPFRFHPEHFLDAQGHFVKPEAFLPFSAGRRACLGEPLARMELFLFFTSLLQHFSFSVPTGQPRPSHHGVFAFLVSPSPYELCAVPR
Cytochrome P450 3A4, sequence (P08684 whole entry): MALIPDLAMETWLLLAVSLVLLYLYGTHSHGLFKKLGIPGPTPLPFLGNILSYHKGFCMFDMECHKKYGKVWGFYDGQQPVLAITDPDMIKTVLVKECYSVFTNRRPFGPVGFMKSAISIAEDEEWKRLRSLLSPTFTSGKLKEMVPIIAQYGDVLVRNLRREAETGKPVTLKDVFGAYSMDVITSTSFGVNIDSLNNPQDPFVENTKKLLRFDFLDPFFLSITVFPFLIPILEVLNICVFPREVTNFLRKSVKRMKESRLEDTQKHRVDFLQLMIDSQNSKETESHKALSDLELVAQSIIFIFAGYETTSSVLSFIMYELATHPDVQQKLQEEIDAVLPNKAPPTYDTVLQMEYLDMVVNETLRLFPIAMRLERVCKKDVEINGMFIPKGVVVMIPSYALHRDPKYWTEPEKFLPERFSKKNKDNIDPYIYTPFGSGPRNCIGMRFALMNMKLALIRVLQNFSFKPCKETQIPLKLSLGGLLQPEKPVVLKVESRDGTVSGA
Eukaryotic translation initiation factor 4E, sequence (P63073 whole entry): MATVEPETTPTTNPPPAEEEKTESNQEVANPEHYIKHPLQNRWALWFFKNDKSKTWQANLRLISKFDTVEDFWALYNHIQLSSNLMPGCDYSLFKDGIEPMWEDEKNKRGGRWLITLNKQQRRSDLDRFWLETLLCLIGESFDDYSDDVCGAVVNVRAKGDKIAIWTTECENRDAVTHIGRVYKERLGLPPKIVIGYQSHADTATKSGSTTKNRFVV

IC50 [1]: 14.9 µM (inactive)
SMILES: CC(C)(C)c1ccc(-c2cc(-c3ccccc3O)[nH]n2)cc1

AC50 [2]: 3.16 µM (inconclusive) | IC50 [3]: > 50 µM (not active) | AC50 [4]: 14.1 µM (inconclusive)
SMILES: O=[N+]([O-])c1ccc2c(c1NC1CCCCC1)=NC1(CCCCC1)[N+]=2[O-]

SMILES: CC[C@@]12C(=O)N(c3cccc(F)c3)C(=O)N1[C@H](c1ccc(Cl)cc1)[C@@H]1C(=O)N(C3CCCCC3)C(=O)[C@@H]12
AC50 [5]: 0.329 µM (active) | AC50 [6]: < 0.26 µM (active) | AC50 [7]: < 0.26 µM (active) | AC50 [8]: 0.416 µM (active)

SMILES: COc1ccc(NS(=O)(=O)c2cccc(NC(=O)c3ccc(S(=O)(=O)N4CCCCCC4)cc3)c2)cc1
AC50 [9]: 38.8 µM (active) | AC50 [10]: 3.12 µM (active) | IC50 [11]: 1.76 µM (active) | AC50 [12]: 0.829 µM (active)

SMILES: CCc1ccc2oc(-c3ccc(N)cc3)nc2c1
AC50 [13]: > 52 µM (inactive) | IC50 [14]: 46.2 µM (active) | AC50 [15]: > 52 µM (inactive) | AC50 [16]: 7.42 µM (active) | AC50 [17]: 4.19 µM (active)

SMILES: C[C@H](CO)N1C[C@H](C)[C@H](CN(C)C(=O)Nc2ccc(C(F)(F)F)cc2)Oc2c(NC(=O)c3ccc(-c4nccs4)cc3)cccc2C1=O
AC50 [18]: 5 µM (active) | AC50 [19]: 4.22 µM (active)

SMILES: C[C@@]12C(=O)N(c3cccc(Cl)c3)C(=O)N1[C@H](c1ccc(Cl)cc1)[C@@H]1C(=O)N(C3CCCCC3)C(=O)[C@@H]12
AC50 [5]: 11.6 µM (active) | AC50 [6]: 1.31 µM (active) | AC50 [7]: 1.21 µM (active) | AC50 [8]: 2.26 µM (active)

SMILES: CC(C)[C@H]1COCn2nncc2CCCC(=O)N1
AC50 [18]: > 39 µM (inactive)

SMILES: Cc1cc(C)c(S(=O)(=O)N2CCN=C2c2ccccc2)cc1C
AC50 [5]: 7.94 µM (active) | AC50 [6]: 7.73 µM (active) | AC50 [7]: 5.08 µM (active) | AC50 [8]: 10.1 µM (active)

IC50 [20]: > 69.5 µM (inactive) | IC50 [1]: > 69.5 µM (inactive)
SMILES: O=C(N/N=C/c1cn(-c2cccs2)nc1-c1ccccc1)c1ccccc1Cl

IC50 [21]: 6.62 µM (active) | IC50 [22]: 50 µM (inactive) | IC50 [23]: > 80 µM (inactive)
SMILES: COc1ccc(-c2cnnc(N/N=C/c3ccc(-c4ccc([N+](=O)[O-])cc4)o3)n2)cc1

IC50 [21]: 17 µM (active) | AC50 [24]: 32.4 µM (active) | IC50 [23]: 37.2 µM (inactive)
SMILES: c1ccc(-c2nc(NCCCN3CCOCC3)c3ccccc3n2)cc1

AC50 [24]: 8.41 µM (active)
SMILES: CN1CCN(c2nc(-c3ccncc3)nc3ccccc23)CC1

SMILES: CN(C)c1ccc(-c2nc3cc(N)ccc3o2)cc1
AC50 [15]: > 52 µM (inactive) | AC50 [16]: 2.28 µM (active) | AC50 [17]: 3.58 µM (active)

SMILES: N#Cc1cccc(-c2ccc([C@@H]3[C@@H]4CN(C(=O)c5ccccn5)C[C@H]3N4)cc2)c1
AC50 [13]: 15 µM (active) | AC50 [15]: > 52 µM (inactive) | AC50 [16]: 11.1 µM (active) | AC50 [17]: 13.2 µM (active)

SMILES: CCOC(=O)[C@]12Cc3cc(OC)ccc3[C@H]1N(C1CCCCC1)C(=O)c1cc(OC)ccc12
IC50 [25]: 4.81 µM (active)

IC50 [20]: > 69.5 µM (inactive)
SMILES: C=C(C)COc1ccc(-c2n[nH]c(C)c2Oc2ccccc2OC)c(O)c1

IC50 [3]: > 50 µM (not active)
SMILES: Cc1ccccc1NC(=S)Nc1cccc2cnccc12

SMILES: C[C@H](CO)N1C[C@H](C)[C@H](CN(C)C(=O)NC2CCCCC2)Oc2ncc(-c3cccc(C(F)(F)F)c3)cc2C1=O
AC50 [26]: 37.8 µM (active)

IC50 [1]: 8.72 µM (active)
SMILES: C=C(C)COc1ccc(-c2[nH]nc(C)c2Oc2ccccc2OC)c(O)c1

IC50 [21]: 13.4 µM (active) | IC50 [27]: > 50 µM (not active) | IC50 [23]: 15.5 µM (active)
SMILES: COc1ccc(/N=c2\[nH]c(=O)c3cc([N+](=O)[O-])ccc3s2)cc1
